We go through 2 compounds from US20060111289A1, “Compositions and methods of using Alpha-fetoprotein growth inhibitory peptides” (Serometrix, LLC,, priority 2004, published 2006).

Marks after values point to notes of the source that are not given here. Where a SMILES comes first, the peptide text is derived from it.

One assay relates to MCF-7 and GI-101 cells. Put plainly: ATP luminescence cytostatic assay (6 days). Particulars: peptide 10^−12 to 10^−8 M. The format is cell-based, human. The source says:
FIG. 2 presents exemplary data for both in vivo and in vitro growth suppressive activities of the GIP-derived P149 and control peptides are depicted in GI-101 human ductal breast carcinoma and in MCF-7 human glandular breast carcinoma. • Panels A and A2: GI-101 and MCF-7 xenograft in nude mice administered P149 time-release pellets for 60 days and 30 days, respectively (N=5 mice/group). • Panels B and B2: GI-101 and MCF-7 in cell cultures treated with P149 and P187 at concentrations from 10-8 to 10-12 M for 6 days and assayed by ATP luminescence reagent employing a luciferin-luciferase system. The ATP assay, used to distinguish between cytostasis versus cytotoxicity, was used to confirm that P149 was cytostatic in its cell inhibitory activity at 6 days (see text for details).
In order to confirm whether P149 was indeed cytostatic, and not cytotoxic, an ATP-based cytostatic assay was performed which measures the decrease in cytosolic ATP during drug (i.e., for example, GIP peptide) treatment. This ATP luminescence assay has long been employed to distinguish between cytostatic versus cytotoxic chemotherapeutic sensitivity of drugs. […] After incubation of the cell cultures for 6 days, cytosolic ATP was extracted, stabilized, and quantitated from a standard curve produced from Berthold LB-96P luminometer readings using a luciferin-luciferase counting reagent.

Assay [1] concerns immature mouse uterine growth. Put plainly: E2-activated immature mouse uterine growth assay. The arrangement: concentration or dose not given beside the values. The format is in vivo.
Assay [2] relates to LNCaP human prostate tumor cells. Put plainly: Whole-cell voltage clamp of LNCaP cells. It is filed as cell-based. Particulars: peptide 10 μM, voltage ramp −100-100 mV (400 ms duration). How it is done:
LNCaP human prostate tumor cells were cultured on 5×5 mm plastic coverslips and were transferred to a microperfusion chamber on the stage of an inverted microscope. Whole-cell voltage clamp was accomplished with an Axopatch 200B (Axon Instr. Co., Union City, Calif.) using ruptured patches. Borosilicate glass capillaries (1.2 mm OD, 0.68 ID, type EN-I, Garner Glass Co., Claremont, Calif.) were used to fabricate patch pipettes (3-8 MΩ in the bath solution) with a Brown-Flaming horizontal micropipette puller (P-87, Sutter Instruments, San Rafael, Calif.). Patch-pipette tips were heat-polished prior to use. A micromanipulator (Narishige) fixed to the microscope positioned the pipettes. Electrode capacitance and access resistance were compensated prior to measurements. All experiments will be performed at room temperature (20-22° C.). The standard extracellular salt solution for ion currents contained (in mM): 150 NaCl, 6 KCl, 1.5 CaCl2, 1 MgCl2, 10 HEPES, 10 glucose, and pH adjusted to 7.4 with 1 N NaOH. […] Electrophysiological recordings were procured and analyzed using PClamp8 software (Axon Instr. Co, Union City, Calif.) and the WinASCD software (Guy Droogmans, Katholieke Universiteit; Leuven, B E). All results were recorded on computer hard drive or on digital audio tape (DAT). […]

“KDFIHKQGVALQTMKQELINLVKELVKPQIEAVADFSGLL (listed as Homo sapiens) [P192, reference compound]”: in the assay with MCF-7 and GI-101 cells, the “Growth inhibition / decrease in cytosolic ATP in the ATP luminescence assay” value is recorded as “not significantly different from the non-treated control”. Further, the “% Inhibition Of Activity: Uterine Growth, Enzymatic Fragments” value in assay [1] stood at 0%.
Turning to `CC[C@H](C)[C@H](NC(=O)[C@@H]1CSSC[C@H](NC(=O)[C@H](C)NC(=O)[C@H](CC(C)C)NC(=O)[C@H](CC(C)C)NC(=O)[C@H](CCCCN)NC(=O)[C@H](CC(=O)O)NC(=O)[C@H](CCC(=O)O)NC(=O)[C@H](CO)NC(=O)[C@@H](N)CC(C)C)C(=O)NCC(=O)N[C@@H](CCC(=O)O)C(=O)NCC(=O)N[C@@H](C)C(=O)N[C@@H](C)C(=O)N[C@@H](CC(=O)O)C(=O)N[C@@H]([C@@H](C)CC)C(=O)N[C@@H]([C@@H](C)CC)C(=O)N[C@@H]([C@@H](C)CC)C(=O)NCC(=O)N[C@@H](Cc2c[nH]cn2)C(=O)N[C@@H](CC(C)C)C(=O)N1)C(=O)N[C@@H](CCCNC(=N)N)C(=O)N[C@@H](Cc1c[nH]cn1)C(=O)N[C@@H](CCC(=O)O)C(=O)N[C@@H](CCSC)C(=O)N[C@H](C(=O)N1CCC[C@H]1C(=O)N[C@H](C(=O)N[C@@H](CC(N)=O)C(=O)N1CCC[C@H]1C(=O)NCC(=O)N[C@H](C(=O)O)C(C)C)C(C)C)[C@@H](C)O` [Cyclic GIP] (HELM PEPTIDE1{L.S.E.D.K.L.L.A.C.G.E.G.A.A.D.I.I.I.G.H.L.C.I.R.H.E.M.T.P.V.N.P.G.V}$PEPTIDE1,PEPTIDE1,9:R3-22:R3$$$V2.0; N-terminus and C-terminus assumed), in assay [2], the “Slope conductance (membrane conduction)” value is 0.78 0.15* nS/pF.
